Assay [1] concerns DC-CD4^+ cell C3a/C5a production. The assay can be described thus: C3a/C5a generation by ELISA. It counts as cell-based, C57BL/6 mice. As to conditions: 3 days. The protocol: (§1) FIGS. 3(A-I) illustrate graphs showing: A) 1×10^6 CD62L^hiCD25^−CD4^+ cells from WT or C3aR^−/−C5aR^−/− mice were incubated with anti-CD3/CD28 Dynabead activation beads, 5 ng/ml rhIL-2, and 1×10^5 CD11c^+ WT DCs for 3 days. The CD4^+ cell and DC partners were sorted, after which the DCs were assayed for B7 family members (*P<0.01; **P<0.03; ***P=0.07) and the CD4^+ cells were assayed for B7 coinhibitory counter-receptors by flow. B) 1×10^6 CD62L^hiCD25^−CD4^+ cells from WT mice were incubated with anti-CD3/CD28 Dynabead activation beads, 5 ng/ml rhIL-2, and 1×10^5 CD11c^+ WT DCs for 3 days±10 nM C3aR-A/C5aR-A or ±5 ng/ml rhTGF-fβ1. The CD4^+ cell and DC partners were sorted, after which the cells were assayed as in (A; *P<0.01 C3aR-A/C5aR-A vs. TGF-β1). […] I) C57BL/6 CD4^+ T cells were incubated for 1 hr with anti-CD3/CD28±100 ng/ml C5a and FoxP3 mRNA was quantitated by qPCR. […]
For C5a, C3a, IL-2, IL-10, and IL-6, capture and biotinylated detection Ab pairs were purchased from BD Biosciences. […] Reactions were terminated using 1N H2SO4 and plates were read using a SpectraMax M2 fluorimeter. • Induction and Evaluation of EAE
(In general: An ELISA detects its analyte on a solid surface through an enzyme-linked reagent.)

Assay [2] has as its system anti-CD3/CD28 stimulated CD4^+ cells. The assay can be described thus: qPCR of complement and FoxP3 mRNA in anti-CD3/CD28 stimulated CD4+ cells. The class given is cell-based, C57BL/6 mice. As to conditions: for FoxP3 mRNA transcription: anti-CD3/28 stimulated naive CD4+ cells, C5a 100 ng/ml, 1 hr; for transcription of complement genes (complement mRNA): qPCR. How it is done:
FIGS. 3(A-I) illustrate graphs showing: A) 1×10^6 CD62L^hiCD25^−CD4^+ cells from WT or C3aR^−/−C5aR^−/− mice were incubated with anti-CD3/CD28 Dynabead activation beads, 5 ng/ml rhIL-2, and 1×10^5 CD11c^+ WT DCs for 3 days. The CD4^+ cell and DC partners were sorted, after which the DCs were assayed for B7 family members (*P<0.01; **P<0.03; ***P=0.07) and the CD4^+ cells were assayed for B7 coinhibitory counter-receptors by flow. B) 1×10^6 CD62L^hiCD25^−CD4^+ cells from WT mice were incubated with anti-CD3/CD28 Dynabead activation beads, 5 ng/ml rhIL-2, and 1×10^5 CD11c^+ WT DCs for 3 days±10 nM C3aR-A/C5aR-A or ±5 ng/ml rhTGF-fβ1. The CD4^+ cell and DC partners were sorted, after which the cells were assayed as in (A; *P<0.01 C3aR-A/C5aR-A vs. TGF-β1). C) 1×10^6 CD62L^hiCD25^− CD4^+ cells from WT or C3aR^−/−C5aR^−/− were incubated with anti-CD3/CD28 Dynabead activation beads, 5 ng/ml rhIL-2, and 1×10^5 CD11c^+ WT DCs for 3 days in the presence of blocking anti-CTLA-4, anti-PD-1, or anti-ICOS-L Abs and percent FoxP3^+ cells assayed by flow cytometry. D) 1×10^6 CD62L^hiCD25^− CD4^+ cells from WT, ICOS^−/−, or PD-1^−/− were incubated with anti-CD3/CD28 Dynabead activation beads, 5 ng/ml rhIL-2, and […] CD11c^+ WT or PD-L1^−/− DCs for 3 days in the presence of blocking anti-CTLA-4, anti-PD-1, or anti-ICOS-L Abs and percent FoxP3^+ cells assayed by flow cytometry. E) Anti-CD3/CD28 stimulated CD4^+ cells were treated with TGF-β1 or buffer and complement mRNA transcripts were assayed by qPCR. F-H) 1×10^4 CD62L^hiCD25^− CD4^+ cells from C57BL/6 mice were incubated with anti-CD3/CD28 Dynabeads and 5 ng/ml rhIL-2 for 3 days in the presence of TGF-β, TGF-β+IL-6, or IL-6 after which cells were assayed for (F) C3 mRNA expression by qPCR, (G) C3 and C5a generation by ELSIA, and (H) C3aR and C5aR surface expression by flow cytometry. I) C57BL/6 CD4^+ T cells were incubated for 1 hr with anti-CD3/CD28±100 ng/ml C5a and FoxP3 mRNA was quantitated by qPCR.
For C3aR/C5aR signaling to be absent, local complement production by interacting DCs and CD4^+ cells must not occur or be suppressed. […] As a first test of this, we incubated anti-CD3/CD28 stimulated CD4^+ cells in the presence and absence of TGF-β1. […] To test how IL-6 affects CD4^+ cell complement production, we added IL-6 to naive CD4^+ cells. […]
[…] for 5 min at 20° C. using Trizol (Invitrogen, Carlsbad, Calif.) according to the manufacturer. When C3aR and C5aR mRNAs were analyzed, preparations were treated with DNase I (standard protocol) to remove genomic DNA. cDNAs were synthesized by incubating 20 μl of mRNAs in Sprint PowerScript Single Shots (Clontech, Mountain View, Calif.). […]
For orientation: Quantitative PCR measures a nucleic acid by following its amplification.

The test system of the next assay is C3aR/C5aR expression. The assay can be described thus: C3aR and C5aR surface expression by flow cytometry. The class given is cell-based, C57BL/6 mice. The note with it: 3 days. The protocol: as §1, with “TGF-β1). C) 1×10^6 CD62L^hiCD25^− CD4^+ cells from WT or C3aR^−/−C5aR^−/− were incubated with anti-CD3/CD28 Dynabead activation beads, 5 ng/ml rhIL-2, and 1×10^5 CD11c^+ WT DCs for 3 days in the presence of blocking anti-CTLA-4, anti-PD-1, or anti-ICOS-L Abs and percent FoxP3^+ cells assayed by flow cytometry.” for “TGF-β1).”

The test system of another assay is naive CD4^+ cells. The assay can be described thus: FoxP3+ iTreg induction from naive CD4+ cells stimulated with anti-CD3, IL-2 and DCs (flow cytometry). It counts as cell-based, mice. For orientation: In flow cytometry, cells or beads pass a laser one at a time.
The subject of the next assay is iTregs. The assay can be described thus: Costimulatory molecule expression of iTregs by flow cytometry. It counts as cell-based, mice. The note with it: higher. How it is done:
as §1, with “TGF-β1). C) 1×10^6 CD62L^hiCD25^− CD4^+ cells from WT or C3aR^−/−C5aR^−/− were incubated with anti-CD3/CD28 Dynabead activation beads, 5 ng/ml rhIL-2, and 1×10^5 CD11c^+ WT DCs for 3 days in the presence of blocking anti-CTLA-4, anti-PD-1, or anti-ICOS-L Abs and percent FoxP3^+ cells assayed by flow cytometry.” for “TGF-β1).”

Assay [3] deals with human CD45RA^+CD25^−CD4^+ cells. The assay can be described thus: Human iTreg preparation and human Treg suppression assay. The class given is cell-based. How it is done: FIGS. 5(A-G) illustrate graphs showing, A-C) EAE was induced in FoxP3-GFP knockin mice and 10 days after disease onset, CD4 cells were isolated from spleens and lymph nodes and sorted on GFP. 4×10^6 GFP negative cells were adoptively transferred into Rag2^−/− mice. The mice were subsequently injected with 1×10^6 FoxP3-GFP positive cells or PBS after which A) weight change, B) clinical scores, and C) percent FoxP3^+ cells were assayed. D-E) EAE was induced in WT and C3aR^−/−C5aR^−/− mice and at day 12 post disease induction draining LN cells were harvested and assayed for D) % FoxP3^+ cells, and E) suppressive capacity as above. F) EAE was induced in FoxP3-GFP knockin mice and 10 days after induction mice were treated with buffer control, C3aR-A/C5aR-A, or ex vivo generated FoxP3^+ Tregs (from FoxP3-GFP mice with C3aR-A/C5aR-A), after which […]) clinical scores were assessed. G) CD25^+ cells from 1×10^6 CD25^−CD4^+ Human T cells isolated by flow cytometry and incubated with soluble anti-CD3, IL-2, and autologous DCs in the presence and absence of TGF-β, C3aR-A/C5aR-A, or anti-C3a/C5a mAbs for 3 days were incubated with CFSE labeled autologous naive T cells, anti-CD3, and autologous DCs and percent dividers determined 3 days thereafter by CFSE dilution. […]

Assay [4] has as its system CellTracker Red-labeled OT-II cells. The assay can be described thus: Murine Treg suppression assay. The class given is cell-based, mice. The note with it: cells from stimulated naive C3−/−C5−/− CD4+ cells, C5a added.

Regarding “IL-6: cytokine IL-6 added to naive CD4+ cells”, the “DC-CD4+ cell C3a/C5a production” value in assay [1] is on record as “evoked”. Further, in assay [2], the “FoxP3 mRNA transcription” value is on record as “inhibited” and the “transcription of complement genes (complement mRNA)” value was “upregulated”. Also, in the assay with C3aR/C5aR expression, the C3aR/C5aR expression entry is “upregulated”.
Turning to TGF-β1: human TGF-β1 from Prospec Bio, the “FoxP3+ cell induction” value with naive CD4^+ cells (anti-CD3/CD28 stimulated CD4+ cells, added TGF-β1) is listed as “induced FoxP3^+ cells”. Besides, in the assay with iTregs, the “costimulatory molecule expression of iTregs generated with exogenous TGF-β1 relative to those generated by C3aR/C5aR antagonism” value is 3-6 fold. The “costimulatory molecules on human iTregs (phenotyping)” value in assay [3] (human iTregs) is “showed costimulatory molecules”. Moreover, the “suppression by CD25+ (FoxP3+) cells of CFSE-labeled CD25−CD4+ cells” value in assay [3] (human, equal number of sorted CD25+ cells, DCs, anti-CD3, same individual) is recorded as “little effect”. In assay [1], the “DC-CD4+ cell C3a/C5a production” value was “did neither”. Besides, the “transcription of complement genes (complement mRNA)” value in assay [2] was “abolished”. Also, the C3aR/C5aR expression result in the assay with C3aR/C5aR expression is reported as “did neither”.

B1: C5a: Murine C5a from Cell Sciences, Inc (protein, UniProt P06684 679-755, looked up)
C5a anaphylatoxin: NLHLLRQKIEEQAAKYKHSVPKKCCYDGARVNFYETCEERVARVTIGPLCIRAFNECCTIANKIRKESPHKPVQLGR
modifications: C5a anaphylatoxin
notes: Murine C5a from Cell Sciences, Inc
As to B1, in the assay on naive CD4^+ cells (naive C3−/−C5−/− CD4+ cells stimulated with anti-CD3, DCs and IL-2, C5a added), the iTreg induction result is reported as “blocked”. For the same molecule, the suppressor function entry in assay [4] is “blocked”. In addition, the “FoxP3 mRNA transcription” value in assay [2] was “inhibited”.

(Values after patent US10933093B2, “Compositions and methods of treating a T cell mediated disorder” (CASE WESTERN RESERVE UNIVERSITY, priority 2009, dated 2021).)
